Test results taken from paper PMC3629230, “Permeability Enhancers Dramatically Increase Zanamivir Absolute Bioavailability in Rats: Implications for an Orally Bioavailable Influenza Treatment” (PLoS ONE, 2013).
“And” between values parts separate entries of the source, which are not always exact repeats. Equal entries are not always repeated. “Also recorded” adds a separate entry of the source.

Legend:
[1] = cited from earlier work
[2] = tested on: Caco-2 cell monolayers; assay: Unidirectional (A-to-B) permeability of zanamivir across Caco-2 cell monolayers with and without excipients; format: in vitro ADME; details: A-to-B, zanamivir 15 µg/mL
Method: Caco-2 cells were obtained from American Type Culture Collection (Rockville, MD). Stock cultures were maintained in flasks with DMEM medium supplemented with 10% FBS, 1% non-essential amino acids, 1 mmol/L sodium pyruvate, 100 IU/mL penicillin, and 100 µg/mL streptomycin in a humidified incubator (37°C, 5% CO2). Cells were harvested by trypsinization and seeded at 60,000 cells/cm^2 onto Costar Transwell® 12-well dual-chamber plates with collagen-coated, microporous polycarbonate membranes (1.13 cm^2 insert area, 0.4 µm pore size; Corning Life Sciences, Acton, MA) for permeability studies. The culture medium was changed three times per week.
Caco-2 cell monolayers that had grown for at least 20 days were subjected to batch quality control testing in which permeation rates were measured for atenolol, digoxin, estrone-3-sulfate, lucifer yellow (LY), and propranolol. In addition, the transepithelial electrical resistance (TEER) across each experimental monolayer was tested prior to an experiment.
Unidirectional (A-to-B) permeability of zanamivir was determined at 15 µg/mL in the absence and presence of varying concentrations of excipients in Caco-2 cell monolayers. The assay buffer was Hanks' balanced salt solution (HBSS) supplemented with 10 mM 4-(2-hydroxyethyl)-1-piperazineethanesulfonic acid (HEPES) and 15 mM D-glucose (HBSSg), pH 7.4. The dosing solutions on the apical side (0.5 mL) contained either zanamivir and excipients at each concentration being tested or zanamivir only (n = 4), while the receiver buffer in the bottom well (1.5 mL) was always excipient-free. The Caco-2 cell monolayers were incubated for 120 min in a humidified incubator (37°C, 5% CO2) after dosing in the apical chambers. Aliquots (200 µL each) of receiver buffer were sampled at 60 min, 90 min, and 120 min after dosing, with replacement by the same volume of blank buffer (at 60 min and 90 min). Donors were sampled at 0 and 120 min.
Experimental samples were identically treated.

[3] = Pharmacokinetics and absolute bioavailability after intraduodenal administration in rats; details: for Cmax / Tmax / AUC(0-t) / AUC(0-inf) / half-life / bioavailability: male, Sprague-Dawley, rat, plasma; for AUC(0-t): AUClast; for half-life: t1/2, intraduodenal; for bioavailability: other: intraduodenal, absolute, vs 1.5 mg intravenous
Source text: Male Sprague-Dawley rats (Hilltop Labs, Scottdale, PA), 3 animals per treatment group, 250–350 grams in weight, were fitted with a jugular vein cannula (JVC). Animals intended for intraduodenal dosing were also fitted with one or more intraduodenal cannula (IDC) and those intended for intravenous dosing were fitted with a second JVC. Food was withheld from the animals for a minimum of twelve hours prior to test article administration and was returned approximately four hours post-dose. Water was supplied ad libitum.
Intraduodenal doses composed of 1.5 mg of zanamivir and varying amounts of an enhancer (glycerol or Capmul MCM L8) were injected directly into the duodenum via the IDC. To determine absolute bioavailability of the intraduodenal administered drug, intravenous dosing was conducted by the injection of 1.5 mg of zanamivir in 200 µL of PBS through a JVC. For some experiments, the absorption enhancer was administered intraduodenally 2 hr prior to administering 1.5 mg of zanamivir in PBS through a second IDC. Each intraduodenal dose was followed with the introduction of a small air bubble (∼10 µL) in the cannula followed by a flush of 125 µL of PBS to ensure the dose was given in full. The volume of PBS used for cannula flush was consistent across the treatment groups. The cannula was tied to prevent the PBS remaining in the cannula from entering the duodenum.
Blood samples collected via the JVC, approximately 400 µL each, were obtained at 2 min, 5 min, 15 min, 30 min, 60 min, 90 min, and 120 min, with sodium heparin used as an anti-coagulant. Each sample was placed into a chilled tube containing the anticoagulant and kept on ice until centrifugation at 4°C, 3,000× g, for 5 min. The plasma supernatants were stored at −70°C until LC-MS analysis.
Dosing solution samples were assayed by liquid chromatography-mass spectrometry (LC-MS/MS) using electrospray ionization. The chromatographic system consisted of Perkin Elmer series 200 micropumps and autosampler equipped with a Waters Atlantic® HILIC Silica […], 2.1×50 mm column. The mass spectrometer was a PE Sciex API 4000 with electrospray interface in multiple reaction monitoring mode. […] Stock solutions (1 mg/mL zanamivir) were prepared in water. Standards (eight concentrations) were prepared in the appropriate matched matrix (HBSSg or Sprague-Dawley rat plasma containing sodium heparin) and diluted 50-fold with methanol. Experimental samples were identically treated.

[4] = intraduodenal, 1.5 mg/animal in PBS, Capmul MCM L8 given 2 hr prior
[5] = intraduodenal, 1.5 mg/animal in PBS, glycerol given 2 hr prior
[6] = intraduodenal, 1.5 mg/animal, 50 µL vehicle Capmul MCM L8
[7] = intraduodenal, 1.5 mg/animal, 50 µL vehicle PBS
[8] = intraduodenal, 1.5 mg/animal, 50 µL vehicle glycerol
[9] = 0.75 mg, Figure 5 experiment, intraduodenal, 0.75 mg zanamivir, 50 µL Capmul MCM L8
[10] = 1.5 mg, intraduodenal, 1.5 mg/animal in PBS, Capmul MCM L8 given 2 hr prior
[11] = 1.5 mg, intraduodenal, 1.5 mg/animal in PBS, glycerol given 2 hr prior
[12] = 1.5 mg, intraduodenal, 1.5 mg/animal, 50 µL vehicle Capmul MCM L8
[13] = 1.5 mg, intraduodenal, 1.5 mg/animal, 50 µL vehicle PBS
[14] = 1.5 mg, intraduodenal, 1.5 mg/animal, 50 µL vehicle glycerol
[15] = 1.5 mg, Figure 5 experiment, intraduodenal, 1.5 mg zanamivir, 50 µL Capmul MCM L8
[16] = 3 mg, Figure 5 experiment, intraduodenal, 3.0 mg zanamivir, 50 µL Capmul MCM L8

For CC(=O)N[C@H]1[C@H]([C@H](O)[C@H](O)CO)OC(C(=O)O)=C[C@@H]1N=C(N)N [Zanamivir, zanamivir], the Oral bioavailability [1] is given as “under 2%”, the “Increase in apparent permeability coefficient (Papp) compared to no-enhancer control” value ([2]; 0.25% Capmul MCM L8, pH 7.4) is given as > 5 fold and 5.2 fold and the “Increase in apparent permeability coefficient (Papp) compared to no-enhancer control” value ([2]; 5% glycerol, pH 7.4) is given as > 5 fold and 5.6 fold. The “Absolute bioavailability relative to negative control” value ([3]; both enhancers (glycerol, Capmul MCM L8) given 2 hr prior to zanamivir) was “equivalent to that of the negative control”, the Absorption enhancement ([3]; enhancer (glycerol or Capmul MCM L8) given intraduodenally 2 hr prior to 1.5 mg zanamivir in PBS) was “No absorption enhancement; also recorded: no enhanced absorption” and the “Increase of absolute bioavailability compared to PBS” value ([3]; intraduodenal, 1.5 mg zanamivir in 50 µL glycerol) was 4.7 fold. For the same compound, the “Dose-normalized AUClast” value [3, 4] was 12.7 kg·ng·h/mL/mg, the “Dose-normalized AUC∞” value [3, 4] was 13 kg·ng·h/mL/mg and the “Dose-normalized AUClast” value [3, 5] was 21.1 kg·ng·h/mL/mg. The “Dose-normalized AUC∞” value [3, 5] was 29.1 kg·ng·h/mL/mg, the “Dose-normalized AUClast” value [3, 6] was 715 kg·ng·h/mL/mg and the “Dose-normalized AUC∞” value [3, 6] was 753 kg·ng·h/mL/mg. The “Dose-normalized AUClast” value [3, 7] was 30.6 kg·ng·h/mL/mg, the “Dose-normalized AUC∞” value [3, 7] was 46.6 kg·ng·h/mL/mg and the “Dose-normalized AUClast” value [3, 8] was 145 kg·ng·h/mL/mg. The “Dose-normalized AUC∞” value [3, 8] was 153 kg·ng·h/mL/mg, the Cmax [3, 9] was 1430 ng/mL and the Tmax [3, 9] was 4.8 min. For the same compound, the AUC(0-t) [3, 10] was 66.1 ng·h/mL, the AUC(0-t) [3, 11] was 112 ng·h/mL and the AUC(0-t) [3, 12] was 3800 ng·h/mL. For the same compound, the AUC(0-t) [3, 13] was 162 ng·h/mL, the AUC(0-t) [3, 14] was 754 ng·h/mL and the AUC(0-inf) [3, 10] was 69.8 ng·h/mL. The AUC(0-inf) [3, 11] was 156 ng·h/mL, the AUC(0-inf) [3, 12] was 4000 ng·h/mL and the AUC(0-inf) [3, 13] was 244 ng·h/mL. For the same compound, the AUC(0-inf) [3, 14] was 781 ng·h/mL, the Cmax ([3]; 1.5 mg, Figure 4 experiment, intraduodenal, 1.5 mg zanamivir, 25 µL Capmul MCM L8) was 1650 ng/mL and the Cmax ([3]; 1.5 mg, Figure 4 experiment, intraduodenal, 1.5 mg zanamivir, 50 µL Capmul MCM L8) was 2120 ng/mL. It also gave a Cmax ([3]; 1.5 mg, Figure 4 experiment, intraduodenal, 1.5 mg zanamivir, 75 µL Capmul MCM L8) of 2570 ng/mL, a Cmax [3, 15] of 3920 ng/mL and a Cmax [3, 10] of 48.6 ng/mL. The Cmax [3, 11] was 77.4 ng/mL, the Cmax [3, 12] was 7230 ng/mL and the Cmax [3, 13] was 134 ng/mL. The Cmax [3, 14] was 948 ng/mL, the half-life ([3]; 1.5 mg, 1.5 mg/animal in PBS, Capmul MCM L8 given 2 hr prior) was 51.6 min and the half-life ([3]; 1.5 mg, 1.5 mg/animal in PBS, glycerol given 2 hr prior) was 74.4 min. The half-life ([3]; 1.5 mg, 1.5 mg/animal, 50 µL vehicle Capmul MCM L8) was 29.4 min, the half-life ([3]; 1.5 mg, 1.5 mg/animal, 50 µL vehicle PBS) was 49.8 min and the half-life ([3]; 1.5 mg, 1.5 mg/animal, 50 µL vehicle glycerol) was 17.4 min. The Tmax [3, 15] was 4.8 min, the Tmax ([3]; 1.5 mg, intraduodenal, 1.5 mg zanamivir mixed with Capmul MCM L8) was 5 min and the Tmax [3, 10] was 60 min. For the same compound, the Tmax [3, 11] was 34.8 min, the Tmax [3, 12] was 4.8 min and the Tmax [3, 13] was 30 min. The Tmax [3, 14] was 30 min, the Cmax ([3]; 1.5 mg/animal, intraduodenal, 50 µL vehicle Capmul MCM L8) was over 7200 ng/mL and the Cmax [3, 16] was 7000 ng/mL. It also gave a Tmax [3, 16] of 8.4 min, a bioavailability [3, 10] of 0.66% and a bioavailability [3, 11] of 1.1%. It also gave a bioavailability [3, 12] of 37.7%, a bioavailability [3, 13] of 1.59% and a bioavailability [3, 14] of 7.53%.
